Experimental data taken from US20240300980A1, “HETEROCYCLIC COMPOUNDS AS KRAS INHIBITOR, AND PREPARATION THEREFOR AND USE THEREOF IN TREATMENT” (SHANGHAI KECHOW PHARMA, INC., priority 2021, published 2024).
Values belong to the molecule of their own block, whether it stands above or below them.

System: AGS cells (KRAS^G12D)
Experiment: Detection of cell proliferation in vitro by MTT/MTS method (cell activity experiment)
Type: cell-based
Conditions: Homo sapiens, AGS, 72 h, AGS cells; MTT/MTS; 3 days of drug treatment; read-out: AGS IC50
Description: The above cells were cultured in a complete medium containing 10% fetal bovine serum, 100 IU/mL penicillin and 100 jag/mL streptomycin, in the aseptic incubator with 95% relative humidity and 5% CO2 concentration.
2. Reagents: F12K, D-PBS, FBS, Penicillin Streptomycin, Tryple, MTT (5 mg/mL)
Appropriate amount of compound powder was weighed in a 1.5 mL centrifuge tube, then the corresponding volume of dimethyl sulfoxide (DMSO) was added to form a 20 mM reserve solution. The solution was packed separately and stored in a refrigerator at −20° C. away from light.
The cells were inoculated in a cell culture bottle, added an appropriate amount of complete medium, and cultured in a sterile incubator. When the degree of cell confluence reached more than 80%, subculture was carried out.
The adherent cells in logarithmic growth phase were digested by trypsin or the suspension cells were collected by centrifugation and counted. 90 μL cell suspension was inoculated into 96-well plate according to the cell inoculation density of 1000 cells per well, and 10 μL of 10-fold final concentration compound diluted by culture medium was added 24 hours later. Compared with the hole with the same volume of 5% DMSO as control, the final concentration of DMSO was 0.5%. After 3 days of drug treatment, the cell viability was detected by MTT. The specific methods are as follows: 10 μL MTT per well was added into the incubator for 4 hours, the supernatant was discarded and 150 μL DMSO was added to dissolve the crystal methylazan, and the absorbance of 490 nm was detected by enzyme labeling instrument, or 10 μL MITS per well was added to the incubator for 4 hours, and […] absorbance was detected directly by enzyme labeling instrument. GraphPad Prism 6 software makes dose-effect curve and calculates IC50.

- IC50: > 2500 nM
Compound: CCc1c(F)ccc2cc(O)cc(-c3ncc4c(N5C[C@H]6CC[C@@H](C5)C6(F)F)nc(OC[C@@]56CCCN5C[C@H](F)C6)nc4c3F)c12 [Example 31, 4-(4-((1R,5S)-8,8-difluoro-3-azabicyclo [3.2.1]octan-3-yl)-8-fluoro-2-(((2R,7aS)-2-fluorotetrahydro-1H-pyrrolizin-7a(5H)-yl)methoxy)pyrido[4,3-d]pyrimidin-7-yl)-5-ethyl-6-fluoronaphthalen-2-ol]

Compound: CCc1nccc2cc(O)cc(-c3ccc4c(N5C[C@H]6CC[C@@H](C5)N6)nc(OC[C@@]56CCCN5C[C@H](F)C6)nc4c3F)c12 [Example 344, 8-(4-((1R,5S)-3,8-diazabicyclo[3.2.1]octan-3-yl)-8-fluoro-2-(((2R,7aS)-2-fluorotetrahydro-1H-pyrrolizin-7a(5H)-yl)methoxy)quinazolin-7-yl)-1-ethylisoquinolin-6-ol]
- IC50: 35 nM

Compound: C=C1CCCc2cc(O)cc(-c3ncc4c(N5C[C@H]6CC[C@@H](C5)N6)nc(OC[C@@]56CCCN5C[C@H](F)C6)nc4c3F)c21 [Example 253, 4-(4-((1R,5S)-3,8-diazabicyclo[3.2.1]octan-3-yl)-8-fluoro-2-(((2R,7aS)-2-fluorotetrahydro-1H-pyrrolizin-7a(5H)-yl)methoxy)pyrido[4,3-d]pyrimidin-7-yl)-5-methylene-5,6,7,8-tetrahydronaphthalen-2-ol]
- IC50: 42 nM

Compound: Oc1cc2c(c(-c3ncc4c(N5C[C@H]6CC[C@@H](C5)N6)nc(OC[C@@]56CCCN5C[C@H](F)C6)nc4c3F)c1)C1CC1C2 (stereo partly drawn) [Example 73, 2-(4-((1R,5S)-3,8-diazabicyclo[3.2.1]octan-3-yl)-8-fluoro-2-(((2R,7aS)-2-fluorotetrahydro-1H-pyrrolizin-7a(5H)-yl)methoxy)pyrido[4,3-d]pyrimidin-7-yl)-1,1a, 6,6a-tetrahydrocyclopropa [a]inden-4-ol]
- IC50: 16.9 nM

Compound: C/C=C1\C(=O)Cc2cc(O)cc(-c3ncc4c(N5C[C@H]6CC[C@@H](C5)N6)nc(OC[C@@]56CCCN5C[C@H](F)C6)nc4c3F)c21 [Example 264, (Z)-7-(4-((1R,5S)-3,8-diazabicyclo[3.2.1]octan-3-yl)-8-fluoro-2-(((2R,7aS)-2-fluorotetrahydro-1H-pyrrolizin-7a(5H)-yl)methoxy)pyrido[4,3-d]pyrimidin-7-yl)-1-ethylidene-5-hydroxy-1,3-dihydro-2H-inden-2-one]
- IC50: > 10000 nM

Compound: C#Cc1c(F)ccc2cc(O)cc(-c3ccc4c(N5C[C@H]6CC[C@@H](C5)N6)nc(OCC5(CN6CCCC6)CC5)nc4c3F)c12 [Example 99, 4-(4-((1R,5S)-3,8-diazabicyclo[3.2.1]octan-3-yl)-8-fluoro-2-((1-(pyrrolidin-1-ylmethyl)cyclopropyl)methoxy)quinazolin-7-yl)-5-ethynyl-6-fluoronaphthalen-2-ol]
- IC50: 8.8 nM

Compound: CC1OCCc2cc(O)cc(C3=C(F)c4nc(OC[C@@]56CCCN5C[C@H](F)C6)nc(N5C[C@H]6CC[C@@H](C5)N6)c4C4=NCCN43)c21 (stereo partly drawn) [Example 410, 8-(10-((1R,5S)-3,8-diazabicyclo[3.2.1]octan-3-yl)-6-fluoro-8-(((2R,7aS)-2-fluorotetrahydro-1H-pyrrolizin-7a(5H)-yl)methoxy)-2,3-dihydroimidazo[1′,2′:1,2]pyrido[4,3-d]pyrimidin-5-yl)-1-methylisochroman-6-ol]
- IC50: 75 nM

Compound: CCc1c(F)ccc2cc(O)cc(-c3ccc4c(N5C[C@H]6CC[C@@H](C5)N6)nc(OCC5(CN6CCCC6)CC5)nc4c3F)c12 [Example 100, 4-(4-((1R,5S)-3,8-diazabicyclo[3.2.1]octan-3-yl)-8-fluoro-2-((1-(pyrrolidin-1-ylmethyl)cyclopropyl)methoxy)quinazolin-7-yl)-5-ethyl-6-fluoronaphthalen-2-ol]
- IC50: 21 nM
